The experiment concerns calcium concentration in the serum. The experiment in a line: Test 1: reduction of calcium level in serum after tail vein administration to rats. Format: in vivo, rats of the Wistar strain. Conditions: 1 ml/kg tail vein, female Wistar rats. The procedure, abridged: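 Female Wistar rats, six weeks old, were assigned in groups of 4 and given the test peptides through the tail vein at 1 ml/kg. The peptides were dissolved in 1% aqueous sodium acetate (pH 4,0) containing 0.1% BSA. Blood (0.3 ml) was drawn from the neck vein immediately before dosing and at set times afterward. Serum was separated by centrifuging at 3500 rpm for 20 minutes. Calcium was measured on a TBA-380 analyzer with a Wako o-cpc kit, and the percentage reduction in serum calcium was calculated.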

Setting [1] is: concentration 83 ng/ml, 0 hour (just before administration).
The mark [2] stands for this setting: concentration 83 ng/ml, 2 hours.
Setting [3] is: concentration 83 ng/ml, 4 hours.
Setting [4] is: concentration 83 ng/ml, 6 hours.
Where [5] appears, read: concentration 830 ng/ml, 0 hour (just before administration).
[6] abbreviates: concentration 830 ng/ml, 1 hour.
[7] abbreviates: concentration 830 ng/ml, 2 hours.
Where [8] appears, read: concentration 830 ng/ml, 4 hours.
Where [9] appears, read: concentration 830 ng/ml, 6 hours.

Values joined by “and” are separate entries in the source; they are usually repeats but may differ in a detail not shown here. Equal values may be shown once. Numbered stars: 1 amine (or outer) side, 2 acyl side, 3 side chain; on linkers, the order of the positions; unused ones are H or OH. Bridge positions count the residues as written; N and C are the ends. Square brackets hold non-standard residues; d marks the D form. Peptide text beside a SMILES is read from it. Suc = O=C(CCC(=O)[*:2])[*:1]; Orn = NCCC[C@H](N)C(=O)O

As for `CC[C@H](C)[C@H](NC(=O)[C@H](C)NC(=O)[C@@H](NC(=O)[C@H](CCC(N)=O)NC(=O)[C@@H]1CCCN1C(=O)[C@H](Cc1ccc(O)cc1)NC(=O)[C@@H](NC(=O)[C@H](CCC(N)=O)NC(=O)[C@H](CC(C)C)NC(=O)[C@H](CCCCN)NC(=O)[C@H](Cc1c[nH]cn1)NC(=O)[C@H](CC(C)C)NC(=O)[C@H](CCC(=O)O)NC(=O)[C@H](CCC(N)=O)NC(=O)[C@H](CO)NC(=O)[C@H](CC(C)C)NC(=O)[C@H](CCCCN)NC(=O)CNC(=O)[C@H](CC(C)C)NC(=O)[C@H](CC(C)C)NC(=O)[C@@H]1CCC(=O)NCCC[C@H](N)C(=O)N[C@@H](CC(N)=O)C(=O)N[C@@H](CC(C)C)C(=O)N[C@@H](CO)C(=O)N[C@@H]([C@@H](C)O)C(=O)N1)[C@@H](C)O)[C@@H](C)O)C(=O)NCC(=O)N[C@H](C(=O)NCC(=O)N[C@@H](C)C(=O)N1CCC[C@H]1C(N)=O)C(C)C` [Peptide No. 30] (H-[Orn]NLSTELLGKLSQELHKLQTYPQTAIGVGAP-NH2; lactam 1-6), the “Serum calcium level as percent of pre-dose baseline” value (shortened to “Serum calcium level as percent”) under setting [1] worked out at 100.0%; the “Serum calcium level as percent” value (concentration 83 ng/ml, 1 hour) turned out to be 77.2%; the “Serum calcium level as percent” value under setting [2] is 80.7%; the “Serum calcium level as percent” value under setting [3] is given as 83.2%; the “Serum calcium level as percent” value under setting [4] amounted to 77.7%; the “Serum calcium level as percent” value under setting [5] worked out at 100.0%. For the same compound, the “Serum calcium level as percent” value under setting [6] was 74.0%, the “Serum calcium level as percent” value under setting [7] was found to be 63.8%, the “Serum calcium level as percent” value under setting [8] was 65.4% and the “Serum calcium level as percent” value under setting [9] was 73.9%.

`CC[C@H](C)[C@H](NC(=O)[C@H](C)NC(=O)[C@@H](NC(=O)[C@H](CCC(N)=O)NC(=O)[C@@H]1CCCN1C(=O)[C@H](Cc1ccc(O)cc1)NC(=O)[C@@H](NC(=O)[C@H](CCC(N)=O)NC(=O)[C@H](CC(C)C)NC(=O)[C@H](CCCCN)NC(=O)[C@H](Cc1c[nH]cn1)NC(=O)[C@H](CC(C)C)NC(=O)[C@H](CCC(=O)O)NC(=O)[C@H](CCC(N)=O)NC(=O)[C@H](CO)NC(=O)[C@H](CC(C)C)NC(=O)[C@H](CCCCN)NC(=O)CNC(=O)[C@H](CC(C)C)NC(=O)[C@H](CCSC)NC(=O)[C@@H]1CSSC[C@H](N)C(=O)NCC(=O)N[C@@H](CC(N)=O)C(=O)N[C@@H](CC(C)C)C(=O)N[C@@H](CO)C(=O)N[C@@H]([C@@H](C)O)C(=O)N1)[C@@H](C)O)[C@@H](C)O)C(=O)NCC(=O)N[C@H](C(=O)NCC(=O)N[C@@H](C)C(=O)N1CCC[C@H]1C(N)=O)C(C)C` [Peptide No. 1] (H-CGNLSTCMLGKLSQELHKLQTYPQTAIGVGAP-NH2; disulfide 1-7): the “Serum calcium level as percent” value runs as follows: under setting [1], 100.0%; (concentration 83 ng/ml, 1 hour) 74.3%; under setting [2], 81.1%; under setting [3], 86.9%; under setting [4], 83.5%; under setting [5], 100.0%. Further, the “Serum calcium level as percent” value is 85.6% and 74.3% and 70.2% under setting [6]; 81.6% and 68.4% and 64.4% under setting [7]; 76.8% and 68.0% and 60.6% under setting [8]; 88.5% and 84.8% and 78.3% under setting [9].

Consider `CC[C@H](C)[C@H](NC(=O)[C@H](C)NC(=O)[C@@H](NC(=O)[C@H](CCC(N)=O)NC(=O)[C@@H]1CCCN1C(=O)[C@H](Cc1ccc(O)cc1)NC(=O)[C@H](CC(C)C)NC(=O)[C@H](CCCCN)NC(=O)[C@H](Cc1c[nH]cn1)NC(=O)[C@H](CC(C)C)NC(=O)[C@H](CCC(=O)O)NC(=O)[C@H](CCC(N)=O)NC(=O)[C@H](CO)NC(=O)[C@H](CC(C)C)NC(=O)[C@H](CCCCN)NC(=O)CNC(=O)[C@H](CC(C)C)NC(=O)[C@H](CCSC)NC(=O)[C@@H]1CSSC[C@H](N)C(=O)NCC(=O)N[C@@H](CC(N)=O)C(=O)N[C@@H](CC(C)C)C(=O)N[C@@H](CO)C(=O)N[C@@H]([C@@H](C)O)C(=O)N1)[C@@H](C)O)C(=O)NCC(=O)N[C@H](C(=O)NCC(=O)N[C@@H](C)C(=O)N1CCC[C@H]1C(N)=O)C(C)C` [Peptide No. 3] (H-CGNLSTCMLGKLSQELHKLYPQTAIGVGAP-NH2; disulfide 1-7), for which the “Serum calcium level as percent” value is recorded as 100.0% under setting [5]; 97.0% under setting [6]; 94.9% under setting [7]; 86.4% under setting [8]; 89.9% under setting [9].

Turning to `CC[C@H](C)[C@H](NC(=O)[C@H](C)NC(=O)[C@@H](NC(=O)[C@H](CCC(N)=O)NC(=O)[C@@H]1CCCN1C(=O)[C@H](Cc1ccc(O)cc1)NC(=O)[C@@H](NC(=O)[C@H](CCC(N)=O)NC(=O)[C@H](CC(C)C)NC(=O)[C@H](CCCCN)NC(=O)[C@H](Cc1c[nH]cn1)NC(=O)[C@H](CC(C)C)NC(=O)[C@H](CCC(=O)O)NC(=O)[C@H](CCC(N)=O)NC(=O)[C@H](CO)NC(=O)[C@H](CC(C)C)NC(=O)[C@H](CCCCN)NC(=O)CNC(=O)[C@H](CC(C)C)NC(=O)[C@@H](NC(=O)[C@@H]1CSSC[C@H](N)C(=O)NCC(=O)N[C@@H](CC(N)=O)C(=O)N[C@@H](CC(C)C)C(=O)N[C@@H](CO)C(=O)N[C@@H]([C@@H](C)O)C(=O)N1)C(C)C)[C@@H](C)O)[C@@H](C)O)C(=O)NCC(=O)N[C@H](C(=O)NCC(=O)N[C@@H](C)C(=O)N1CCC[C@H]1C(N)=O)C(C)C` [Peptide No. 11] (H-CGNLSTCVLGKLSQELHKLQTYPQTAIGVGAP-NH2; disulfide 1-7), the “Serum calcium level as percent” value reads like this: under setting [1], 100.0%; (concentration 83 ng/ml, 1 hour) 69.7%; under setting [2], 82.8%; under setting [3], 83.9%; under setting [4], 81.0%; under setting [5], 100.0%. Moreover, the “Serum calcium level as percent” value was 69.1% under setting [6], 62.7% under setting [7], 77.2% under setting [8] and 86.2% under setting [9].

`CC[C@H](C)[C@H](NC(=O)[C@H](C)NC(=O)[C@@H](NC(=O)[C@H](CCC(N)=O)NC(=O)[C@@H]1CCCN1C(=O)[C@H](Cc1ccc(O)cc1)NC(=O)[C@@H](NC(=O)[C@H](CCC(N)=O)NC(=O)[C@H](CC(C)C)NC(=O)[C@H](CCCCN)NC(=O)[C@H](Cc1c[nH]cn1)NC(=O)[C@H](CC(C)C)NC(=O)[C@H](CCC(=O)O)NC(=O)[C@H](CCC(N)=O)NC(=O)[C@H](CO)NC(=O)[C@H](CC(C)C)NC(=O)[C@H](CCCCN)NC(=O)CNC(=O)[C@H](CC(C)C)NC(=O)[C@H](CC(C)C)NC(=O)[C@@H]1CCCCNC(=O)CCC(=O)N[C@@H](CC(N)=O)C(=O)N[C@@H](CC(C)C)C(=O)N[C@@H](CO)C(=O)N[C@@H]([C@@H](C)O)C(=O)N1)[C@@H](C)O)[C@@H](C)O)C(=O)NCC(=O)N[C@H](C(=O)NCC(=O)N[C@@H](C)C(=O)N1CCC[C@H]1C(N)=O)C(C)C` [Peptide No. 26] (NLSTKLLGKLSQELHKLQTYPQTAIGVGAP-NH2; linker N-5 via Suc): the “Serum calcium level as percent” value under setting [1] was determined as 100.0%; the “Serum calcium level as percent” value (concentration 83 ng/ml, 1 hour) was 78.9%; the “Serum calcium level as percent” value under setting [2] turned out to be 67.6%; the “Serum calcium level as percent” value under setting [3] amounted to 70.4%; the “Serum calcium level as percent” value under setting [4] was 75.2%; the “Serum calcium level as percent” value under setting [5] is reported as 100.0%. In addition, the “Serum calcium level as percent” value was 73.9% under setting [6], 62.9% under setting [7], 52.1% under setting [8] and 48.2% under setting [9].

As to `CC[C@H](C)[C@H](NC(=O)[C@H](C)NC(=O)[C@@H](NC(=O)[C@H](CCC(N)=O)NC(=O)[C@@H]1CCCN1C(=O)[C@H](Cc1ccc(O)cc1)NC(=O)[C@@H](NC(=O)[C@H](CCC(N)=O)NC(=O)[C@H](CC(C)C)NC(=O)[C@H](CCCCN)NC(=O)[C@H](Cc1c[nH]cn1)NC(=O)[C@H](CC(C)C)NC(=O)[C@H](CCC(=O)O)NC(=O)[C@H](CCC(N)=O)NC(=O)[C@H](CO)NC(=O)[C@H](CC(C)C)NC(=O)[C@H](CCCCN)NC(=O)CNC(=O)[C@H](CC(C)C)NC(=O)[C@H](CC(C)C)NC(=O)[C@@H]1CCCNC(=O)CC[C@H](N)C(=O)N[C@@H](CC(N)=O)C(=O)N[C@@H](CC(C)C)C(=O)N[C@@H](CO)C(=O)N[C@@H]([C@@H](C)O)C(=O)N1)[C@@H](C)O)[C@@H](C)O)C(=O)NCC(=O)N[C@H](C(=O)NCC(=O)N[C@@H](C)C(=O)N1CCC[C@H]1C(N)=O)C(C)C` [Peptide No. 29] (H-ENLST[Orn]LLGKLSQELHKLQTYPQTAIGVGAP-NH2; lactam 1-6), the “Serum calcium level as percent” value runs as follows: under setting [1], 100.0%; (concentration 83 ng/ml, 1 hour) 84.6%; under setting [2], 91.7%; under setting [3], 83.2%; under setting [4], 76.6%; under setting [5], 100.0%. Further, the “Serum calcium level as percent” value reads like this: under setting [6], 75.0%; under setting [7], 84.7%; under setting [8], 78.0%; under setting [9], 73.1%.

(Values after US6127519A, “Calcitonin derivatives” (Tsumura & Co., priority 1990, dated 2000).)
